Laboratory results: patent US20260217719A1, “CDK2 INHIBITORS” (BLUEPRINT MEDICINES CORPORATION, priority 2023, published 2026)
Read-outs that look alike come from different tables or passages of the source.

Legend:
CDK1/Cyclin B1, GST-tag = target: T1, CDK1/Cyclin B1, GST-tag (Homo sapiens, UniProt P06493); assay: Enzymatic phosphorylation activity assay (Caliper mobility shift), CDK1/Cyclin B1; assay type: biochemical
T1 construct: GST; purchased BPS 40454
Method: (§1) Inhibitory effects of the compounds of the disclosure were measured in biochemical assays that measure the enzymatic phosphorylation activity of CDK enzyme in complex of Cyclin proteins phosphorylates 7.5 micromolar fluorescently labelled peptide substrate, 5-FAM-QSPKKG-CONH2, (FL-Peptide 18, Perkin Elmer, 760362) in the presence of adenosine-5′-triphosphate (ATP) and varying concentrations of the test compound in 100 mM 2-[4-(2-hydroxyethyl)piperazin-1-yl] ethanesulfonic acid (HEPES), pH 7.5, 10 mM MgCl2, 0.015% Brij-35, 1 mM dithiothreitol (DTT), 1.0% dimehylsulfoxide (DMSO). […] Reactions proceeded until between 10% to 20% total peptides were phosphorylated at room temperature (25° C.) and were terminated with 35 mM 2,2′,2″,2″-(ethane-1,2-diyldinitrilo)tetraacetic acid (EDTA). Product was detected using the Caliper mobility shift detection method where the phosphorylated peptide (product) and substrate were electrophoretically separated and measured. Percent activity was plotted against log concentration of compound and points to generate an apparent IC50. The following CDK enzymes in complex with different cyclin proteins were used in these assays: • CDK1/Cyclin B1, GST-tag (BPS, 40454), 1.5 nM used in the assay • CDK2/Cyclin E (Eurofins, 14-475), 1.25 nM used in the assays

CDK2/Cyclin E = target: T2, CDK2/Cyclin E (Homo sapiens, UniProt P24941); assay: Enzymatic phosphorylation activity assay (Caliper mobility shift), CDK2/Cyclin E; assay type: biochemical
T2 construct: purchased Eurofins 14-475
Method: as §1

[1] = read-out: Enzyme CDK1/cyclin B1 IC50
[2] = read-out: Enzyme CDK2/cyclin E IC50

T1 sequence (P06493 whole entry): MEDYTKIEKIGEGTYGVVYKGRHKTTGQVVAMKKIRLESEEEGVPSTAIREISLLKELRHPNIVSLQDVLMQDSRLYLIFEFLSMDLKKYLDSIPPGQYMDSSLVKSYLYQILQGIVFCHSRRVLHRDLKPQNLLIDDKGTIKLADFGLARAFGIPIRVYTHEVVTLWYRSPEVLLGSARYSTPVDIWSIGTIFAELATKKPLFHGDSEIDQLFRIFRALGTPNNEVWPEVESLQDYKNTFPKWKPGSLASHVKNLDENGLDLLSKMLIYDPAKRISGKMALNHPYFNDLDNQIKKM
T1 sequence (P14635 whole entry partner): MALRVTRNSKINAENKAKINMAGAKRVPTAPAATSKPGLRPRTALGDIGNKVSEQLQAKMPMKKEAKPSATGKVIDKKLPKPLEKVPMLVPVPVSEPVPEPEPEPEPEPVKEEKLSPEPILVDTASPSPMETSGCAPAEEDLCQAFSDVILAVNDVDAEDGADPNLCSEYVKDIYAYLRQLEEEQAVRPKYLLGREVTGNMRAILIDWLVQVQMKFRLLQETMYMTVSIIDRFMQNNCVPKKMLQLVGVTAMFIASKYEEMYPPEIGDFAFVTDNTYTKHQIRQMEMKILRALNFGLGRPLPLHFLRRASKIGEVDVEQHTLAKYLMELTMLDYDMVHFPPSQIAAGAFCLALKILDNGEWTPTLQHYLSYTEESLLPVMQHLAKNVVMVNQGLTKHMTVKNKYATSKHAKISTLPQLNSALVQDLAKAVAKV

IC50 (CDK1/Cyclin B1, GST-tag; [1])	IC50 (CDK2/Cyclin E; [2])	Molecule	IC50 (CDK1/Cyclin B1, GST-tag; apparent IC50, 1.5 nM enzyme, 7.5 micromolar FL-Peptide 18, 1.0 mM ATP or ATP Km, 25° C.)	IC50 (CDK2/Cyclin E; apparent IC50, 1.25 nM enzyme, 7.5 micromolar FL-Peptide 18, 1.0 mM ATP or ATP Km, 25° C.)
115 nM	0.44 nM	CC(C)c1cc(Nc2cnc3ccn(CC4CCOCC4)c3n2)n[nH]1 [Example 1, N-(5-isopropyl-1H-pyrazol-3-yl)-5-((tetrahydro-2H-pyran-4-yl)methyl)-5H-pyrrolo[2,3-b]pyrazin-3-amine]		
163 nM	0.71 nM	FC(F)Oc1cc(Nc2cnc3ccn(CC4CCOCC4)c3n2)n[nH]1 [Example 2, N-(5-(difluoromethoxy)-1H-pyrazol-3-yl)-5-((tetrahydro-2H-pyran-4-yl)methyl)-5H-pyrrolo[2,3-b]pyrazin-3-amine]		
224 nM	0.22 nM	C[C@@H](c1cccnc1)n1ccc2ncc(Nc3cc(OC(F)F)[nH]n3)nc21 [Example 5, (S)—N-(5-(difluoromethoxy)-1H-pyrazol-3-yl)-5-(1-(pyridin-3-yl)ethyl)-5H-pyrrolo[2,3-b]pyrazin-3-amine]		

The remaining lines, values behind:

Molecule	IC50 (CDK1/Cyclin B1, GST-tag; [1])	IC50 (CDK2/Cyclin E; [2])	IC50 (CDK1/Cyclin B1, GST-tag; apparent IC50, 1.5 nM enzyme, 7.5 micromolar FL-Peptide 18, 1.0 mM ATP or ATP Km, 25° C.)	IC50 (CDK2/Cyclin E; apparent IC50, 1.25 nM enzyme, 7.5 micromolar FL-Peptide 18, 1.0 mM ATP or ATP Km, 25° C.)
CC(C)c1cc(Nc2cnc3ccn([C@@H](C)c4cccnc4)c3n2)n[nH]1 [Example 3, (S)—N-(5-isopropyl-1H-pyrazol-3-yl)-5-(1-(pyridin-3-yl)ethyl)-5H-pyrrolo[2,3-b]pyrazin-3-amine]	40 nM	0.03 nM		
CC(C)c1cc(Nc2cnc3ccn([C@H](C)c4cccnc4)c3n2)n[nH]1 [Example 4, (R)—N-(5-isopropyl-1H-pyrazol-3-yl)-5-(1-(pyridin-3-yl)ethyl)-5H-pyrrolo[2,3-b]pyrazin-3-amine]	54 nM	0.31 nM		
(S)-7-chloro-N-(5-isopropyl-1H-pyrazol-3-yl)-5-(1-(pyridin-3-yl)ethyl)-5H-pyrrolo[2,3-b]pyrazin-3-amine [Example 6]			869 nM	2.23 nM
